# Test results taken from publication PMC6199744, “Development of Chemical Proteomics for the Folateome and Analysis of the Kinetoplastid Folateome” (ACS Infectious Diseases, 2018).
# Where two headings read alike, the source gives them in different places.
# Legend:
# Type in all cases: binding
# [1] = biological target: T1, HeLa cell extract proteins (Homo sapiens, UniProt P05455)
# T1 construct: endogenous in cells; host or cells: HeLa cell extract
# T1 sequence (P05455 1-408): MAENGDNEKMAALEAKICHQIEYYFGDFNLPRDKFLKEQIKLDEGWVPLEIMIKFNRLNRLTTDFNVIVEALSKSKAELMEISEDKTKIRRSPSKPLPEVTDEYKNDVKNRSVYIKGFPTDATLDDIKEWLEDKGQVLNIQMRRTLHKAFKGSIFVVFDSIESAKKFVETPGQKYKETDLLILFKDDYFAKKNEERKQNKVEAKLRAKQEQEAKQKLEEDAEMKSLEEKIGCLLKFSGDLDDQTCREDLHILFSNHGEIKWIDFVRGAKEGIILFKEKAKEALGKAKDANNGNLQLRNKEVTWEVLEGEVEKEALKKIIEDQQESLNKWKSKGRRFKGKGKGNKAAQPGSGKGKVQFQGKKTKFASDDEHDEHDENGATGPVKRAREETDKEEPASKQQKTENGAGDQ
# [2] = biological target: T2, HeLa cell extract proteins (Homo sapiens, UniProt Q9ULK4)
# T2 construct: endogenous in cells; host or cells: HeLa cell extract
# T2 sequence (Q9ULK4 1-1368): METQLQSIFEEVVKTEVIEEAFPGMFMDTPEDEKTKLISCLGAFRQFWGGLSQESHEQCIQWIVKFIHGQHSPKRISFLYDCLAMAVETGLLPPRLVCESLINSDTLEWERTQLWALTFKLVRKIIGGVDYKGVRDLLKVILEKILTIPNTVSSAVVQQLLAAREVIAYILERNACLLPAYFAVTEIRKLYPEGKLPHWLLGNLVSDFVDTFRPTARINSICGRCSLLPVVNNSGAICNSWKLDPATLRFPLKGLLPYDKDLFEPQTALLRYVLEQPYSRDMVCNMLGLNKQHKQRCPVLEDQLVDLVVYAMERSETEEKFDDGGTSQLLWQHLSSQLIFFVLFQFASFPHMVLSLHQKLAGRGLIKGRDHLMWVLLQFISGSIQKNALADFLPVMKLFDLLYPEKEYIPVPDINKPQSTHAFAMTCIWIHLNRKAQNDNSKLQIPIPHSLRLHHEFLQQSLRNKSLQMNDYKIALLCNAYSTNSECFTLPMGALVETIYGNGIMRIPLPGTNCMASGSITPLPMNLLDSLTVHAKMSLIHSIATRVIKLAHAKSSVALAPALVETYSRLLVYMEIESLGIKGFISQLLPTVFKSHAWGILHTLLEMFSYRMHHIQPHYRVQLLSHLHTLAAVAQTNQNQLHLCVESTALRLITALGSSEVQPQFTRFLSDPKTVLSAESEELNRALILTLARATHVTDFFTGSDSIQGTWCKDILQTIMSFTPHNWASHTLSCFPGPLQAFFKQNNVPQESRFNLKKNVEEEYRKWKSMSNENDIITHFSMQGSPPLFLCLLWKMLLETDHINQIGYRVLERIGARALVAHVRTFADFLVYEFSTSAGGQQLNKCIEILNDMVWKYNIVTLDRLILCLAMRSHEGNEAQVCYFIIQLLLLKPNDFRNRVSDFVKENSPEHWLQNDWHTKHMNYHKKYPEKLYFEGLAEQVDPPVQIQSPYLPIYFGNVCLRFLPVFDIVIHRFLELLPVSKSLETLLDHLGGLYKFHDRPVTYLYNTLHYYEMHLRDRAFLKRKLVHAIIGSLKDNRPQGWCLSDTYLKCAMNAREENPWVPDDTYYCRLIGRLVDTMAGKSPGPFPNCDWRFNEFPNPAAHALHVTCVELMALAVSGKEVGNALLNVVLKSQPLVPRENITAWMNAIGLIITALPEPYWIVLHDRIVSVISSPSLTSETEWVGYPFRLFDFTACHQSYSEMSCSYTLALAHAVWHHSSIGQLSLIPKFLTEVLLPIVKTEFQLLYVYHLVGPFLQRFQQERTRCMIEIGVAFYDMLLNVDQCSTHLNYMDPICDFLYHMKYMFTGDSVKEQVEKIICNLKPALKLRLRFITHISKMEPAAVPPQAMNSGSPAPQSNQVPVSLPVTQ
# [3] = biological target: T3, HeLa cell extract proteins (Homo sapiens, UniProt P22314)
# T3 construct: endogenous in cells; host or cells: HeLa cell extract
# T3 sequence (P22314 1-1058): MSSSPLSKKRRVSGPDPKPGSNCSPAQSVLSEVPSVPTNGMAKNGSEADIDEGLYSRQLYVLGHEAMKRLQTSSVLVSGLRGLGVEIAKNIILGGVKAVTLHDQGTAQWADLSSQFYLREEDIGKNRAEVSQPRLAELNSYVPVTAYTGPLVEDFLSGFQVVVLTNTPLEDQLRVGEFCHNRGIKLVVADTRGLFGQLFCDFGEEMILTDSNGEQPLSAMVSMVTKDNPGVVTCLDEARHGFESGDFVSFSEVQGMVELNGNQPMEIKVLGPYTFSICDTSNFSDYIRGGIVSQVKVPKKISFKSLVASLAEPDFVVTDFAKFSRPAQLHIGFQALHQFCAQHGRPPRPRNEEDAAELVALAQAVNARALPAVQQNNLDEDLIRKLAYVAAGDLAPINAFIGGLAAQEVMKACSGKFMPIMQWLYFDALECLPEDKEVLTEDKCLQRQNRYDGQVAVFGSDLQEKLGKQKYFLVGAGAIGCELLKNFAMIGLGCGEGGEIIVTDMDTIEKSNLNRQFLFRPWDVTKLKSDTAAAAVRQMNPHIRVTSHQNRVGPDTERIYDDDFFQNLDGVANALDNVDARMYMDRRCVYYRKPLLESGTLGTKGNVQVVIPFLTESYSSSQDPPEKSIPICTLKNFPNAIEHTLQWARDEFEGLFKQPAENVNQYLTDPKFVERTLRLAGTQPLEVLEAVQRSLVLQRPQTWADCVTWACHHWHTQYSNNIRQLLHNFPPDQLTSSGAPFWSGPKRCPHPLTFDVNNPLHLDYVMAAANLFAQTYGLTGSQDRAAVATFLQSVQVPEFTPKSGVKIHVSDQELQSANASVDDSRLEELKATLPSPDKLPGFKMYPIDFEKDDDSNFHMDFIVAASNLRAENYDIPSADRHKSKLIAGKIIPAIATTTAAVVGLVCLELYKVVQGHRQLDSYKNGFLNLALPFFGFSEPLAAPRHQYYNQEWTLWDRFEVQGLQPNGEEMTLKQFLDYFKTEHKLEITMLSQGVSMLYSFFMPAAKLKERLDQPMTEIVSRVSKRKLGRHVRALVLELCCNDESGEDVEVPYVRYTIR
# [4] = biological target: T4, HeLa cell extract proteins (Homo sapiens, UniProt Q5T4S7)
# T4 construct: endogenous in cells; host or cells: HeLa cell extract
# [5] = HeLa, protein SSB (LUPUS LA PROTEIN.)
# T4 sequence (Q5T4S7 whole entry): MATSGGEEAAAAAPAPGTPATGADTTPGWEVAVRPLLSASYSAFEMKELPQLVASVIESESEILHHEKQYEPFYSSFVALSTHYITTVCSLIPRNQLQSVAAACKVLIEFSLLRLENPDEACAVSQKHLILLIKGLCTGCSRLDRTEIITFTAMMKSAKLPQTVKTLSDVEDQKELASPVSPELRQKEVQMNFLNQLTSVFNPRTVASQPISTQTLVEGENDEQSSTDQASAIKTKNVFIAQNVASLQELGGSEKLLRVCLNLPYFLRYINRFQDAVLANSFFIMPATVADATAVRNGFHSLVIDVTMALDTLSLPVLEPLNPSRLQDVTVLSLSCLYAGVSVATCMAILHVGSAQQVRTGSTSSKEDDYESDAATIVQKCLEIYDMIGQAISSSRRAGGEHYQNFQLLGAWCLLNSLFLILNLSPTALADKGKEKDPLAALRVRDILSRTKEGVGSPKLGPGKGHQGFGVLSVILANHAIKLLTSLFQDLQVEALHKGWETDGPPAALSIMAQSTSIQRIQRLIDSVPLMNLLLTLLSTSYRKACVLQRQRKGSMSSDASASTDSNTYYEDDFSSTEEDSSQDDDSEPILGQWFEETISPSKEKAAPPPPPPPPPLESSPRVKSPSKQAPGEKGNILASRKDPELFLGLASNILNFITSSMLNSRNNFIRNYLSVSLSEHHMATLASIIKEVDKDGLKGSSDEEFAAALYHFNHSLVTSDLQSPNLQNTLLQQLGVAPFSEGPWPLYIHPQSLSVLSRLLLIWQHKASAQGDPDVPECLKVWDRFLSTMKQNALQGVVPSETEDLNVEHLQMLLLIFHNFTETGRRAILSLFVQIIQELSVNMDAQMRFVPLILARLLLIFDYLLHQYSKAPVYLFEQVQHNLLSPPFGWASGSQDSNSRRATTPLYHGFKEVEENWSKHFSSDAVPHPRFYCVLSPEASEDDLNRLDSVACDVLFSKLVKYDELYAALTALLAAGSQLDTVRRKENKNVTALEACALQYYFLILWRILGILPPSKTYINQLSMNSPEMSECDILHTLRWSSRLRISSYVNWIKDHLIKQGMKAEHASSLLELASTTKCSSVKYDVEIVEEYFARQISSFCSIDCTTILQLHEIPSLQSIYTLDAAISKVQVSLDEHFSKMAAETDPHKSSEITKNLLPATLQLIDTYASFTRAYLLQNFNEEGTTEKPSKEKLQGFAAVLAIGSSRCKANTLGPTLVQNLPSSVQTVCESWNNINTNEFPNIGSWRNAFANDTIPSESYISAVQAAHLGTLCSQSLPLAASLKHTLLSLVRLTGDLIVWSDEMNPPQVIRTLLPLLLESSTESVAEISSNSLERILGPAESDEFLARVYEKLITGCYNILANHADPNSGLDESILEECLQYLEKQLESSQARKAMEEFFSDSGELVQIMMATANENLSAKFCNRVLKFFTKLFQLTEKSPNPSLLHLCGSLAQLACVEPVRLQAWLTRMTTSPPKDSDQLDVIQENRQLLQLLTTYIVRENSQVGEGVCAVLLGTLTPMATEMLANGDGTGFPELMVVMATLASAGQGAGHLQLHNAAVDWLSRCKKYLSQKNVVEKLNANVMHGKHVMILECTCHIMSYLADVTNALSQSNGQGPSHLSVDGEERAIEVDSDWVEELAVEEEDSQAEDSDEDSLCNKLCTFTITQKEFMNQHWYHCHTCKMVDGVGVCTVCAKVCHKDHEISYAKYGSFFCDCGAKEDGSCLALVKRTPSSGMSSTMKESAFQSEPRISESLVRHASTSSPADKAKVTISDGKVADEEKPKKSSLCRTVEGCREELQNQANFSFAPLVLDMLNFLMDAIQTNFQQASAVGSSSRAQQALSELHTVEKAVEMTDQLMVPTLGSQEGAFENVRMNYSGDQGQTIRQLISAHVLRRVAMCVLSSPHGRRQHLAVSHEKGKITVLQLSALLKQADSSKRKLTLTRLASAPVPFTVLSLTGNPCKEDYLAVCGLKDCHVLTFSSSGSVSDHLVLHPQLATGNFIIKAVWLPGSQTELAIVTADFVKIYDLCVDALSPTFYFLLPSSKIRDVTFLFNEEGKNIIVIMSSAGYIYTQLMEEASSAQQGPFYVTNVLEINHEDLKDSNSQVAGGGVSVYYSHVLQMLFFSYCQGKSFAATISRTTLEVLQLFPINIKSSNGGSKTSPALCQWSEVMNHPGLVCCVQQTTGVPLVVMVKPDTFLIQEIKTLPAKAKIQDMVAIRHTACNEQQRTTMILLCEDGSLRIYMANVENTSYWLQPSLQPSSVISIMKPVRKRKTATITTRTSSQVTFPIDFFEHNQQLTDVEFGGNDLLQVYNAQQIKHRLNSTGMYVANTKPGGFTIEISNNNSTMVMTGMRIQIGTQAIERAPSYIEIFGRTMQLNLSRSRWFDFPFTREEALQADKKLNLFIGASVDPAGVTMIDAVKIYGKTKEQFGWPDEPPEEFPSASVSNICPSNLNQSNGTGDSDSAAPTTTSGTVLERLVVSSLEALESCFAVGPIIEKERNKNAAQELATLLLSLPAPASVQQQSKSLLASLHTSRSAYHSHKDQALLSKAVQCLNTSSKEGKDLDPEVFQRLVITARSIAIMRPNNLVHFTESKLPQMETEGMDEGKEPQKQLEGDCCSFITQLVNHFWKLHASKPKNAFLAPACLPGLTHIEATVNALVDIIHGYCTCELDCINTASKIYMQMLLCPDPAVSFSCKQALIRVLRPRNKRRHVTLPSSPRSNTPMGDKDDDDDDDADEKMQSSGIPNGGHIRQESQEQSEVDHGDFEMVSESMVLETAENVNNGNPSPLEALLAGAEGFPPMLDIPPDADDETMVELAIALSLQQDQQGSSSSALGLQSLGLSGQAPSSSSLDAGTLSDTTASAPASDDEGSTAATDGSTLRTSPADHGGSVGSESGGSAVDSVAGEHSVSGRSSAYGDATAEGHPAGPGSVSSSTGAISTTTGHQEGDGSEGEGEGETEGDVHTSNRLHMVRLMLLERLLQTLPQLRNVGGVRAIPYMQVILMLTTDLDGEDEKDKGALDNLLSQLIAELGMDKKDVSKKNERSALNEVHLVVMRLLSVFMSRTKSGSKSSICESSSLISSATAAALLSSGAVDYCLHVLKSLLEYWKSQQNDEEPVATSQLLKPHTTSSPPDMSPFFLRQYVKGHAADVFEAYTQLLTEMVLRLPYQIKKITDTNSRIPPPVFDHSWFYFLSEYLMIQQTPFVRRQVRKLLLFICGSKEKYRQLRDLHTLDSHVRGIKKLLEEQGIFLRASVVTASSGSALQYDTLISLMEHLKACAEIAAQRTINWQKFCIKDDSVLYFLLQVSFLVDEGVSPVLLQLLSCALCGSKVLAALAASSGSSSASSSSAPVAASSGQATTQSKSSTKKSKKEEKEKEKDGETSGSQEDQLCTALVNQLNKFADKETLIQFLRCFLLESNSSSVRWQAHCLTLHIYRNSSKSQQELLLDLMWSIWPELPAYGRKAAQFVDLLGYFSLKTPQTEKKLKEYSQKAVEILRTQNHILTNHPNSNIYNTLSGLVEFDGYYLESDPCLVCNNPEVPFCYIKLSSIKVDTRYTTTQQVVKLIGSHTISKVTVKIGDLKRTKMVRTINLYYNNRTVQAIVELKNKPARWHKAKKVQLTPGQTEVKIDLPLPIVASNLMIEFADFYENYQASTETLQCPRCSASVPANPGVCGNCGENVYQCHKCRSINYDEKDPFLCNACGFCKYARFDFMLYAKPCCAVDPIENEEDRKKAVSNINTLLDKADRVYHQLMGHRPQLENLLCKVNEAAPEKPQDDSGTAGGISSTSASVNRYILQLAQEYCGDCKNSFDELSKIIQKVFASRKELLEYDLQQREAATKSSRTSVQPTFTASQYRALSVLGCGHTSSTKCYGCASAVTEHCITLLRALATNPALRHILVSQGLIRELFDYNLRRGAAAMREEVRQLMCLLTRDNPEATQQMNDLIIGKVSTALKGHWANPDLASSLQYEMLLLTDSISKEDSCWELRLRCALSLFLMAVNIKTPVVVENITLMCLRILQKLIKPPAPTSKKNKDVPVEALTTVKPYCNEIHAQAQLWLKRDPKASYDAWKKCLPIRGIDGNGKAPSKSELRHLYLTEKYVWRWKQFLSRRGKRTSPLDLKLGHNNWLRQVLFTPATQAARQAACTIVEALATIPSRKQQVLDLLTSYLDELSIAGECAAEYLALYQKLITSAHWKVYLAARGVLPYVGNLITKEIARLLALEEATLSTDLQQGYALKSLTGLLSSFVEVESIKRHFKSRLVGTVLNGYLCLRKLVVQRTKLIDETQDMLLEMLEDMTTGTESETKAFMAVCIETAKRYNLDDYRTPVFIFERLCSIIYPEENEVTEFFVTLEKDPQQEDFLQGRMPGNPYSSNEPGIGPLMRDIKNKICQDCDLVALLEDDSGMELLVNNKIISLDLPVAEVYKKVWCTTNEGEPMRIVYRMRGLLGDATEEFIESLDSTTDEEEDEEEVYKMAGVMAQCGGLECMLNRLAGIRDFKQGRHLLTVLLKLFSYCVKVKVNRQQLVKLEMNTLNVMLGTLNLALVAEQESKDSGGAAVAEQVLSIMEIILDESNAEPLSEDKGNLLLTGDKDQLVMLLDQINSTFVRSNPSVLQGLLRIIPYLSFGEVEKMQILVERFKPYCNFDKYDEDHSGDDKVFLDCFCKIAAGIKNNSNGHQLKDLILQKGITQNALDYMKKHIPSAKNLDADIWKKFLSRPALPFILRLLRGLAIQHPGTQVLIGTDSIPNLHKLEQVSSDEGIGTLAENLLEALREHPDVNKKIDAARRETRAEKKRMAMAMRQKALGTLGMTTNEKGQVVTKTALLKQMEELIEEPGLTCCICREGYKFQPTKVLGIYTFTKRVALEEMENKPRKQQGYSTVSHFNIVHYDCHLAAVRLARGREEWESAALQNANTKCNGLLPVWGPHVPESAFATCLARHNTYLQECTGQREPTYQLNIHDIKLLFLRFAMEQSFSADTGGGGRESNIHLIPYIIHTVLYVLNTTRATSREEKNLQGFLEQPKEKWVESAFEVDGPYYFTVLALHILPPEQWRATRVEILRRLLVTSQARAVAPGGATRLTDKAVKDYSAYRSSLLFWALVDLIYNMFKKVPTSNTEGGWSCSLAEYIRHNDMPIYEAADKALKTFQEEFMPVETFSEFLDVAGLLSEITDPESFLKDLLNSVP
compound,measurement,setting,value
"Nc1nc2c(c(=O)[nH]1)N(C=O)C(CNc1ccc(C(=O)N[C@@H](CCC(=O)O)C(=O)O)cc1)CN2 (stereo partly shown) [LEU, leucovorin]",fold changes relative to vehicle control,"[1]; HeLa, protein SSB",1.03
same,fold changes relative to vehicle control,"[2]; HeLa, protein MED23",0.91
same,fold changes relative to vehicle control,"[3]; HeLa, protein UBA1",1.05
same,fold changes relative to vehicle control,"[4]; protein UBR4, HeLa",1.02
"Nc1nc2[nH]cc(CCc3ccc(C(=O)N[C@@H](CCC(=O)O)C(=O)O)cc3)c2c(=O)[nH]1 [PTX, pemetrexed]",fold changes relative to vehicle control,[1],1.12
same,fold changes relative to vehicle control,[2],0.95
same,fold changes relative to vehicle control,[3],0.96
same,fold changes relative to vehicle control,[4],0.94
CCCCCCOc1ccc(Cc2cnc(N)nc2N)cc1 [compound 1],fold changes relative to vehicle control,[1]; [5],1.38 fold
same,fold changes relative to vehicle control,"[2]; captured protein MED23, HeLa",0.94
same,fold changes relative to vehicle control,"[3]; protein UBA1, HeLa",0.77
same,fold changes relative to vehicle control,"[4]; protein UBR4, HeLa",1.14
CCCCCCOc1cccc(Cc2cnc(N)nc2N)c1 [compound 2],fold changes relative to vehicle control,[1]; [5],2.04 fold
same,fold changes relative to vehicle control,"[2]; captured protein MED23, HeLa",1.04
same,fold changes relative to vehicle control,"[3]; protein UBA1, HeLa",1.62
same,fold changes relative to vehicle control,"[4]; protein UBR4, HeLa",1.19
Nc1nc2cccc(-c3ccccc3)c2n1Cc1ccc(Cl)c(Cl)c1 [compound 3],fold changes relative to vehicle control,[1]; [5],1.01 fold
same,fold changes relative to vehicle control,"[2]; captured protein MED23, HeLa",1.1
same,fold changes relative to vehicle control,"[3]; protein UBA1, HeLa",0.75
same,fold changes relative to vehicle control,"[4]; protein UBR4, HeLa",1.08
NCCOCCOCC(=O)Nc1nc2ncc(CNc3ccc(C(=O)NC(CCC(=O)O)C(=O)O)cc3)nc2c(=O)[nH]1 (stereo not shown) [compound 6],fold changes relative to vehicle control,"[1]; HeLa, protein SSB",1.31
same,fold changes relative to vehicle control,"[2]; HeLa, protein MED23",0.93
same,fold changes relative to vehicle control,"[3]; HeLa, protein UBA1",1.15
same,fold changes relative to vehicle control,"[4]; protein UBR4, HeLa",0.42
NCCCNc1ccc(C(=O)NC(CCC(=O)O)C(=O)O)cc1 (stereo not shown) [compound 7],fold changes relative to vehicle control,"[1]; HeLa, protein SSB",0.99
same,fold changes relative to vehicle control,"[2]; HeLa, protein MED23",0.97
same,fold changes relative to vehicle control,"[3]; HeLa, protein UBA1",0.92
same,fold changes relative to vehicle control,"[4]; protein UBR4, HeLa",1.02
